From patent publication US20260240837A1, “Compositions Reducing the Expression or Activity of C1 GALT1 for Treating Ewing Sarcoma” (University of Massachusetts Medical School, priority 2023, published 2026)
“Also recorded” adds a separate entry of the source. Residues, ends and D or L forms follow the SMILES beside them. *: point of attachment. Cbz = O=C(OCc1ccccc1)*

What was measured:
EWSR1::FLI1 [1] = assay: qRT-PCR of EWSR1::FLI1 expression in A673 cells; format: cell-based, human; conditions: compound at 2.5-10 μM for 48 hours, FIGS. 6B-6C
Description: (§1) Total RNA was isolated from cells using Trizol (Invitrogen, Cat #15596). cDNA was synthesized using Proto Script II reverse transcription kit (New England Biolabs (NEB), Ipswich, MA, Cat #E6560) and real-time PCR reactions were performed using Quant Studio 3 (Applied Biosystems by Thermo Fisher Scientific) using primer sequences listed in Table 2. Gene expression was normalized to that of GAPDH. A control without reverse transcription (no-RT control) was carried out in parallel to rule out the possibility of DNA contamination. The experiments were performed three independent times.
(§2) In the experiment in FIG. 5D, cells were treated with 10 μM ketoconazole (Sigma, Cat #PHR1385; CAS No. 65277-42-1) for 72 hours. Dimethyl sulfoxide (DMSO) was used as vehicle control.

EWSR1::FLI1 [2] = assay: Immunoblot of EWSR1::FLI1 protein levels (anti-FLI1 antibody) in A673 cells; format: cell-based, human; conditions: compound at 2.5-10 μM for 48 hours, FIGS. 6B-6C
Description: Cells extracts were prepared in radioimmunoprecipitation assay (RIPA) buffer (1% Triton-X100, 0.1% sodium dodecyl sulfate (SDS), 0.5% deoxycholic acid, 20 mM tris(hydroxymethyl)aminomethane (Tris), pH 7.5, 10% glycerol) containing 1× complete ethylenediaminetetraacetic acid (EDTA)-free protease inhibitor cocktail (Roche, Basel, Switzerland, Cat #11873580001) and 1 mM phenylmethylsulfonyl fluoride (PMSF). For the immunoblot in FIG. 7L, cells expressing FLAG-SMO (wild-type and mutants) were treated with 10 μM MG132 (Selleck Chemicals, Houston, TX, Cat #S2619; CAS No. 1211877-36-9) for 12 hours or 100 nM bafilomycin A1 (Selleck Chemicals, Cat #S1413; CAS No. 88899-55-2) for 6 hours. Total cell lysates (30 μg) were subjected to SDS-polyacrylamide gel electrophoresis (PAGE) and transferred to nitrocellulose membrane, which were blocked with 5% non-fat dry milk, and incubated with the following antibodies overnight at 4° C.: anti-C1GALT1 (1:1000 dilution; Santa Cruz Biotechnology, Dallas, TX, Cat #SC-100745), anti-FLI1 (1:2000 dilution; Abcam, Cambridge, United Kingdom, Cat #ab 133485), anti-EWSR1 (1:1000 dilution; Sigma Aldrich, Cat #HPA051771), anti-GLI1 (1:1000 dilution; Cell Signaling Technology, Danvers, MA, Cat #2553), anti-GLI2 (1:500 dilution; Abcam, Cat #ab187386), anti-PARP1 (1:500 dilution; Santa Cruz Biotechnology, Cat #SC-8007), anti-SMO (1:2000 dilution; Abcam, Cat #ab236465), anti-β-actin (1:2000 dilution; Sigma, Cat #A2228), anti-GAPDH (1:2000 dilution; Abcam, Cat #ab8245) or anti-FLAG M2 (1:1000 dilution; Sigma, Cat #F1804). The blots were imaged by exposing to x-ray film. The experiments were conducted three independent times, and the results from one representative experiment are shown.
as §2

EWSR1::FLI1/ERG = assay: qRT-PCR and immunoblot of EWSR1::FLI1/ERG in TC-71, TC-32 and TC-106 cells; format: cell-based, human; conditions: 48 hours, FIG. 9D
[3] = Animal weight / tolerability in xenograft-bearing mice; conditions: mice with TC-71, TC-32 or TC-106 xenografts; 100 mg/kg; FIG. 11G
Description: A673, TC-71, TC-106, or TC-32 cells (5×10^6) were suspended in PBS and […] ® extracellular matrix (Corning Cat #356234) in a 1:1 ratio, and subcutaneously injected into the right flank of 6-7 week old NOD scid gamma (NSG) immunocompromised mice (n=3 for each vehicle or drug treatment). Tumor dimensions were measured every 3 days with calipers, and the tumor volume was calculated using the formula volume=width^2× length/2.

SMO = assay: Immunoblot and qRT-PCR of SMO in A673 cells; format: cell-based, human; conditions: 100 nM ITZ for 72 hours plus MG132 or BafA1, FIG. 7K
Description: as §1
(§3) Cells extracts were prepared in radioimmunoprecipitation assay (RIPA) buffer (1% Triton-X100, 0.1% sodium dodecyl sulfate (SDS), 0.5% deoxycholic acid, 20 mM tris(hydroxymethyl)aminomethane (Tris), pH 7.5, 10% glycerol) containing 1× complete ethylenediaminetetraacetic acid (EDTA)-free protease inhibitor cocktail (Roche, Basel, Switzerland, Cat #11873580001) and 1 mM phenylmethylsulfonyl fluoride (PMSF). For the immunoblot in FIG. 7L, cells expressing FLAG-SMO (wild-type and mutants) were treated with 10 μM MG132 (Selleck Chemicals, Houston, TX, Cat #S2619; CAS No. 1211877-36-9) for 12 hours or 100 nM bafilomycin A1 (Selleck Chemicals, Cat #S1413; CAS No. 88899-55-2) for 6 hours. […]

[4] = system: FLAG-SMO (T55A) and FLAG-SMO (T500A); assay: Immunoblot of FLAG-SMO mutants stably expressed in A673 cells; format: cell-based, human; conditions: 10 μM MG132 for 12 hours or 100 nM bafilomycin A1 for 6 hours, FIG. 7L
Text: To generate cell lines stably ectopically expressing EWSR1::FLI1 (also referred to as EWS-FLI1, EWS::FLI1, or EWSR1-FLI1), TC-71 or NIH 3T3 cells were transduced with the lentiviral expression plasmid pCDH-puro-EWS-FLI1 or, as a control, pCDH-CMV-MCS-EFla-Puro and cells were selected with puromycin for five days. NIH 3T3 cells stably expressing SMO were generated by transduction of pHAGE-SMO or, as a control, pHAGE puro. NIH 3T3 cells stably expressing C1GALT1 were generated by transduction of C1GALT1-expression plasmid EX-W0494-Lv120 or, as a control, EX-EGFP-Lv120. A673 cell lines stably expressing FLAG-tagged wild-type SMO, FLAG-SMO (T55A), or FLAG-SMO (T500A) used lentiviral plasmids synthesized by GenScript in the pGenLenti vector.
Cells extracts were prepared in radioimmunoprecipitation assay (RIPA) buffer (1% Triton-X100, 0.1% sodium dodecyl sulfate (SDS), 0.5% deoxycholic acid, 20 mM tris(hydroxymethyl)aminomethane (Tris), pH 7.5, 10% glycerol) containing 1× complete ethylenediaminetetraacetic acid (EDTA)-free protease inhibitor cocktail (Roche, Basel, Switzerland, Cat #11873580001) and 1 mM phenylmethylsulfonyl fluoride (PMSF). […]

[5] = system: FLAG-SMO (T55A) and FLAG-SMO (T500A); assay: Ubiquitination immunoprecipitation assay in A673 cells; format: cell-based, human; conditions: A673 cells expressing HA-Ub; 10 μM MG132 or 100 nM bafilomycin A1 for 8 hours; FIG. 7M
Description: A673 cells stably expressing FLAG-tagged wild-type SMO, FLAG-SMO (T55A) or FLAG-SMO (T500A) were transfected with a plasmid expressing HA-tagged ubiquitin (HA-Ub; Addgene plasmid #18712 (Kamitani et al., 1997) and treated in the presence or absence of 10 μM MG132 for 8 hours or 100 nM bafilomycin A1 for 8 hours. Cell lysates were incubated with either an anti-HA magnetic beads (Sigma, Cat #SAE0197) or anti-FLAG M2 magnetic beads (Sigma, Cat #M8823), and immunoprecipitated proteins were detected using an anti-FLAG M2 (1:1500 dilution; Sigma, Cat #F1804) or anti-HA (1:1500 dilution; Cell Signaling Cat #2367) antibody.

[6] = system: FLAG-SMO (T55A) and FLAG-SMO (T500A); assay: Immunoblot of FLAG-SMO mutants stably expressed in TC-71 cells; format: cell-based, human; conditions: FIG. 9F
Description: as §3

SMO and GLI1 = assay: Immunoblot and qRT-PCR of SMO and GLI1 in NIH 3T3 cells; format: cell-based, mouse; conditions: FIG. 7E
Description: as §1, §3

[7] = system: EWSR1::FLI1^tdTomato reporter; assay: Flow cytometry of tdTomato in A673/EWSR1::FLI1^tdTomato/Cas9/EGFP reporter cells; format: cell-based, human; conditions: 10 μM for 72 hours; FIG. 5D
Description: To confirm that knockdown of EWSR1::FLI1 would reduce tdTomato fluorescence, A673/EWSR1::FLI1^tdTomato cells (1×10^5 cells/well in a 6-well plate) were infected with lentiviral particles expressing a non-silencing (NS), EWSR1, or FLI1 short hairpin RNA (shRNA) (Table 3), selected with 2 μg/ml puromycin for 5 days, and analyzed by flow cytometry using a BD LSRII flow cytometer (BD Biosciences). A673/EWSR1::FLI1^tdTomato cells were then infected with lentiviral particles expressing the plasmid lentiCas9-Blast (a gift from Feng Zhang; Addgene plasmid #52962; (Sanjana et al., 2014)) and selected with 3 μg/ml blasticidin for 7 days. Cas9 activity was confirmed by transducing A673/EWSR1::FLI1^tdTomato/Cas9 cells with the lentiviral vector pXPR_011 (a gift from John Doench and David Root; Addgene plasmid #59702; (Doench et al., 2014)), which carries a puromycin resistance marker and includes an enhanced green fluorescent protein (EGFP, also referred to as GFP) reporter gene and an sgRNA sequence specifically targeting the EGFP gene, followed by selection with 2 μg/ml puromycin for 5 days and analysis of EGFP by flow cytometry. Finally, A673/EWSR1::FLI1^tdTomato/Cas9 cells were infected with lentiviral particles expressing the plasmid pLenti CMV EGFP Blast (659-1) (a gift from Eric Campeau and Paul Kaufman; Addgene plasmid #17445 (Campeau et al., 2009)). […]

C1GALT1 = C1GALT1 (Homo sapiens, UniProt Q9NS00); conditions: previous studies (Lin et al., 2018); cited from earlier work
Chain of C1GALT1 (Q9NS00 whole entry): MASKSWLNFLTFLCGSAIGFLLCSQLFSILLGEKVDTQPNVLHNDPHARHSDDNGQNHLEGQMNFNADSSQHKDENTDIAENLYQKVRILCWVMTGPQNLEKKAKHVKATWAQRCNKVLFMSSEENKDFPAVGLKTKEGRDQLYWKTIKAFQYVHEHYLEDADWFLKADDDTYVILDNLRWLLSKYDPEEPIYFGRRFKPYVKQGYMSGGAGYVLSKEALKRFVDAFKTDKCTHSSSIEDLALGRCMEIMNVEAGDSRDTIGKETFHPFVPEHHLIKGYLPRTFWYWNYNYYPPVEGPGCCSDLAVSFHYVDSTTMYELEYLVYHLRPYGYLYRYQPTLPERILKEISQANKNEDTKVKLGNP

CN(C)c1ccccc1CN1CCCN(Cc2ccccc2N(C)C)C1c1ccncc1 [GANT-61]
EWSR1::FLI1 mRNA levels (EWSR1::FLI1 [1]): dose-dependent reduction
EWSR1::FLI1 protein levels (EWSR1::FLI1 [2]): dose-dependent reduction

CCC(C)n1ncn(-c2ccc(N3CCN(c4ccc(OCC5COC(Cn6cncn6)(c6ccc(Cl)cc6Cl)O5)cc4)CC3)cc2)c1=O (stereo not shown) [ITZ, itraconazole]
EWSR1::FLI1/ERG expression (EWSR1::FLI1/ERG): reduced
animal weight [3]: absence of weight loss

CC(C)C[C@@H](C=O)NC(=O)[C@H](CC(C)C)NC(=O)[C@H](CC(C)C)NC(=O)OCc1ccccc1 [MG132] (Cbz-Leu-Leu-Leu-aldehyde)
reduction in SMO levels observed upon ITZ treatment (SMO): reversed
expression of SMO (T55A) and SMO (T500A) mutant proteins [4]: restored
ubiquitination of SMO (T55A) and SMO (T500A) [5]: detected
stability of O-GalNAc-glycosylation-defective SMO mutants [6]: restored

CNC1CCC(N(Cc2cccc(-c3ccncc3)c2)C(=O)c2sc3ccccc3c2Cl)CC1.Cl (stereo not shown) [SAG, Smoothened Agonist hydrochloride]
EWSR1::FLI1 mRNA levels (EWSR1::FLI1 [1]): dose-dependent increase
EWSR1::FLI1 protein levels (EWSR1::FLI1 [2]): dose-dependent increase
levels of SMO and GLI1 (SMO and GLI1): increased levels

CO/C1=C\C(C)=C\[C@@H](C)[C@@H](O)[C@@H](C)C/C(C)=C/C=C/[C@H](OC)[C@@H]([C@@H](C)[C@@H](O)[C@H](C)[C@@]2(O)C[C@@H](O)[C@H](C)[C@@H](C(C)C)O2)OC1=O [bafilomycin A1]
reduction in SMO levels observed upon ITZ treatment (SMO): reversed
expression of SMO (T55A) and SMO (T500A) mutant proteins [4]: restored
ubiquitination of SMO (T55A) and SMO (T500A) [5]: detected
stability of O-GalNAc-glycosylation-defective SMO mutants [6]: restored

CC1=C2C[C@H]3[C@@H](CC=C4C[C@@H](O)CC[C@@]43C)[C@@H]2CC[C@]12O[C@@H]1C[C@H](C)CN[C@H]1[C@H]2C [cyclopamine]
EWSR1::FLI1 mRNA levels (EWSR1::FLI1 [1]): dose-dependent reduction
EWSR1::FLI1 protein levels (EWSR1::FLI1 [2]): dose-dependent reduction

CC(=O)N1CCN(c2ccc(OCC3COC(Cn4ccnc4)(c4ccc(Cl)cc4Cl)O3)cc2)CC1 (stereo not shown) [ketoconazole]
EWSR1::FLI1 expression (EWSR1::FLI1^tdTomato reporter) [7]: does not reduce; also recorded: no effect; also recorded: did not result in reduced
inhibition of C1GALT1 (C1GALT1): not to inhibit; also recorded: does not inhibit
